Blank lines part the entries; values can stand above or below the molecule they belong to.
Assays:
[1] = Compound taste was tested with reference of sucrose sweetness; +/- = Sweet/bitter
[2] = Compound taste was tested with reference of sucrose sweetness; + / - - = Sweet/very bitter
[3] = Value represents the number of times the compound was as sweet as sucrose
[4] = Compound taste was tested with reference of sucrose sweetness; + / - = Sweet/ bitter
[5] = Value represents the number of times the compound was as sweet as sucrose.
[6] = Compound taste was tested with reference of sucrose sweetness; + / - = Sweet/bitter
[7] = Value represents the number of times the compound was as sweet as sucrose; +/- - - = Sweet/ very bitter
[8] = Compound taste was tested with reference of sucrose sweetness; - = Bitter
[9] = Compound taste was tested with reference of sucrose sweetness; +/ - - = Sweet/ very bitter
[10] = compound taste was tested with reference of sucrose sweetness; + / - - = sweet / bitter
[11] = compound taste was tested with reference of sucrose sweetness; - = bitter

- Taste [1]: +/-
SMILES: N#Cc1cccc(NC(=O)C(CC(=O)O)NC(=O)C(F)(F)F)c1 (centres undefined)

- Taste [2]: + / - -
SMILES: Cc1cc(NC(=O)C(CC(=O)O)NC(=O)C(F)(F)F)ccc1[N+](=O)[O-] (centres undefined)

- Taste [3]: 3000
SMILES: N#Cc1ccc(NC(=O)C(CC(=O)O)NC(=O)C(F)(F)F)cc1 (centres undefined)

- Taste [4]: + / -
SMILES: Cc1cccc(NC(=O)C(CC(=O)O)NC(=O)C(F)(F)F)c1 (centres undefined)

- Taste [5]: 1500
SMILES: O=C(O)CC(NC(=O)C(F)(F)F)C(=O)Nc1ccc([N+](=O)[O-])cc1 (centres undefined)

- Taste [6]: + / -
SMILES: O=C(O)CC(NC(=O)C(F)(F)F)C(=O)Nc1cccc(Cl)c1 (centres undefined)

- Taste [7]: +/- - -
SMILES: O=C(O)CC(NC(=O)C(F)(F)F)C(=O)Nc1cccc([N+](=O)[O-])c1 (centres undefined)

- Taste [8]: Bitter
SMILES: O=C(O)CC(NC(=O)C(F)(F)F)C(=O)Nc1ccccc1Cl (centres undefined)

- Taste [9]: + / - -
SMILES: O=C(O)CC(NC(=O)C(F)(F)F)C(=O)Nc1ccc([N+](=O)[O-])c([N+](=O)[O-])c1 (centres undefined)

- Taste [10]: + / - -
SMILES: Cc1cc([N+](=O)[O-])ccc1NC(=O)C(CC(=O)O)NC(=O)C(F)(F)F (centres undefined)

- Taste [3]: 120
SMILES: O=C(O)CC(NC(=O)C(F)(F)F)C(=O)Nc1ccc(Cl)cc1 (centres undefined)

- Taste [3]: 12
SMILES: O=C(O)CC(NC(=O)C(F)(F)F)C(=O)Nc1ccccc1 (centres undefined)

- Taste [8]: Bitter
SMILES: N#Cc1ccccc1NC(=O)C(CC(=O)O)NC(=O)C(F)(F)F (centres undefined)

- Taste [11]: Bitter
SMILES: O=C(O)CC(NC(=O)C(F)(F)F)C(=O)Nc1ccccc1[N+](=O)[O-] (centres undefined)
